Test results reported in ChEMBL document CHEMBL1201862, “PubChem BioAssay data set” (2004).
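Cultured in 96-well plates, cells were exposed to test compound for 48 hours across five concentrations. The concentration for 50% growth inhibition is given as GI50.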 The source made the active and inactive calls. Rule as the data show it: active = GI50 up to about 1.1 µM and inactive = higher.

What was measured:
Assay in all cases: NCI anticancer screen, dose series, 48 h
786-0 = test system: 786-0
A498 = test system: A498
A549 = test system: A549
ACHN = test system: ACHN
BT-549 = test system: BT-549
CAKI-1 = test system: CAKI-1
CCRF-CEM = test system: CCRF-CEM
COLO 205 = test system: COLO 205
EKVX = test system: EKVX
HCC 2998 = test system: HCC 2998
HCT-15 = test system: HCT-15
HL-60 = test system: HL-60
HOP-62 = test system: HOP-62
HT-29 = test system: HT-29
Hs-578T = test system: Hs-578T
IGROV-1 = test system: IGROV-1
K562 = test system: K562
KM12 = test system: KM12
M14 = test system: M14
MCF7 = test system: MCF7
MDA-MB-231 = test system: MDA-MB-231
MDA-MB-435 = test system: MDA-MB-435
MDA-N = test system: MDA-N
MOLT-4 = test system: MOLT-4
Malme-3M = test system: Malme-3M
NCI-H23 = test system: NCI-H23
NCI-H460 = test system: NCI-H460
NCI-H522 = test system: NCI-H522
NCI/ADR-RES = test system: NCI/ADR-RES
OVCAR-3 = test system: OVCAR-3
OVCAR-5 = test system: OVCAR-5
OVCAR-8 = test system: OVCAR-8
PC-3 = test system: PC-3
RPMI-8226 = test system: RPMI-8226
RXF 393 = test system: RXF 393
SF-268 = test system: SF-268
SF-295 = test system: SF-295
SF-539 = test system: SF-539
SK-MEL-28 = test system: SK-MEL-28
SK-MEL-2 = test system: SK-MEL-2
SK-MEL-5 = test system: SK-MEL-5
SK-OV-3 = test system: SK-OV-3
SN12C = test system: SN12C
SNB-19 = test system: SNB-19
SR = test system: SR
SW-620 = test system: SW-620
T47D = test system: T47D
TK-10 = test system: TK-10
U-251 = test system: U-251
UACC-257 = test system: UACC-257
UACC-62 = test system: UACC-62
UO-31 = test system: UO-31
DU-145 = test system: DU-145
HCT-116 = test system: HCT-116
HOP-92 = test system: HOP-92
LOX IMVI = test system: LOX IMVI
NCI-H226 = test system: NCI-H226
OVCAR-4 = test system: OVCAR-4
SNB-75 = test system: SNB-75

Measured: GI50

CO[C@]12C[C@H](CNC(=O)c3cc(Br)c(Br)[nH]3)O[C@H]1NC(=O)N2
> 100 µM: HCT-15
active: CCRF-CEM 0.548 µM
inactive: 786-0 > 100 µM | A498 > 100 µM | A549 > 100 µM | ACHN > 100 µM | BT-549 > 100 µM | CAKI-1 > 100 µM | COLO 205 > 100 µM | DU-145 > 100 µM | EKVX > 100 µM | HCC 2998 > 100 µM | HCT-116 > 100 µM | HL-60 > 100 µM | HOP-62 > 100 µM | HOP-92 25.2 µM | HT-29 > 100 µM | Hs-578T > 100 µM | IGROV-1 > 100 µM | K562 > 100 µM | KM12 > 100 µM | LOX IMVI > 100 µM | M14 > 100 µM | MCF7 > 100 µM | MDA-MB-231 > 100 µM | MDA-MB-435 > 100 µM | MOLT-4 > 100 µM | Malme-3M > 100 µM | NCI-H226 > 100 µM | NCI-H23 > 100 µM | NCI-H460 > 100 µM | NCI-H522 > 100 µM | NCI/ADR-RES > 100 µM | OVCAR-3 > 100 µM | OVCAR-4 > 100 µM | OVCAR-5 > 100 µM | OVCAR-8 > 100 µM | PC-3 > 100 µM | RPMI-8226 > 100 µM | SF-268 > 100 µM | SF-295 > 100 µM | SF-539 > 100 µM | SK-MEL-28 > 100 µM | SK-MEL-2 > 100 µM | SK-MEL-5 > 100 µM | SK-OV-3 > 100 µM | SN12C > 100 µM | SNB-19 > 100 µM | SNB-75 > 100 µM | SR > 100 µM | SW-620 > 100 µM | T47D > 100 µM | TK-10 > 100 µM | U-251 > 100 µM | UACC-257 > 100 µM | UACC-62 > 100 µM | UO-31 > 100 µM

CC1(C)OCC2OC3([C@H]4OC(C)(C)O[C@@H]4CO)OC(C)(C)OC3C2O1 (some centres not stated)
inactive: 786-0 > 100 µM | A498 > 100 µM | A549 > 100 µM | ACHN > 100 µM | BT-549 > 100 µM | CAKI-1 > 100 µM | CCRF-CEM > 100 µM | COLO 205 > 100 µM | DU-145 > 100 µM | EKVX > 100 µM | HCC 2998 > 100 µM | HCT-116 > 100 µM | HOP-62 > 100 µM | HOP-92 > 100 µM | HT-29 > 100 µM | IGROV-1 > 100 µM | K562 > 100 µM | KM12 > 100 µM | LOX IMVI > 100 µM | M14 > 100 µM | MCF7 > 100 µM | MDA-MB-231 > 100 µM | MDA-MB-435 > 100 µM | MDA-N > 100 µM | MOLT-4 > 100 µM | NCI-H226 > 100 µM | NCI-H23 > 100 µM | NCI-H460 > 100 µM | NCI/ADR-RES > 100 µM | OVCAR-3 > 100 µM | OVCAR-4 > 100 µM | OVCAR-5 > 100 µM | OVCAR-8 > 100 µM | PC-3 > 100 µM | RPMI-8226 > 100 µM | RXF 393 > 100 µM | SF-295 > 100 µM | SF-539 > 100 µM | SK-MEL-28 > 100 µM | SK-MEL-2 > 100 µM | SK-MEL-5 > 100 µM | SN12C > 100 µM | SNB-19 > 100 µM | SNB-75 > 100 µM | SR > 100 µM | SW-620 > 100 µM | T47D > 100 µM | U-251 > 100 µM | UACC-257 > 100 µM | UACC-62 > 100 µM | UO-31 > 100 µM
> 100 µM: HCT-15

c1csc(-c2csc(-c3ccsc3)c2)c1
inactive: 786-0 > 100 µM | A498 > 100 µM | A549 99.5 µM | ACHN > 100 µM | BT-549 > 100 µM | CAKI-1 > 100 µM | CCRF-CEM > 100 µM | COLO 205 > 100 µM | EKVX > 65.8 µM | HCC 2998 > 100 µM | HCT-116 > 100 µM | HL-60 > 74.6 µM | HOP-62 > 100 µM | HOP-92 > 100 µM | HT-29 > 100 µM | Hs-578T > 100 µM | IGROV-1 > 100 µM | K562 > 100 µM | KM12 > 100 µM | LOX IMVI > 100 µM | M14 > 75.9 µM | MCF7 > 46.3 µM | MDA-MB-231 > 100 µM | MDA-MB-435 > 100 µM | MDA-N > 100 µM | MOLT-4 62.4 µM | Malme-3M 56.4 µM | NCI-H226 > 57.5 µM | NCI-H23 > 68.2 µM | NCI-H460 > 100 µM | NCI-H522 61.5 µM | NCI/ADR-RES > 100 µM | OVCAR-3 > 100 µM | OVCAR-4 > 100 µM | OVCAR-5 > 100 µM | OVCAR-8 > 100 µM | PC-3 > 100 µM | RPMI-8226 > 100 µM | RXF 393 > 46.9 µM | SF-268 > 100 µM | SF-295 > 100 µM | SF-539 > 55.5 µM | SK-MEL-28 > 100 µM | SK-MEL-2 > 100 µM | SK-MEL-5 > 100 µM | SK-OV-3 > 100 µM | SN12C > 100 µM | SNB-19 > 100 µM | SNB-75 > 92 µM | SR 97.3 µM | SW-620 > 100 µM | T47D > 45.1 µM | TK-10 > 100 µM | U-251 > 100 µM | UACC-257 > 100 µM | UACC-62 > 100 µM | UO-31 > 70.1 µM
> 100 µM: HCT-15

O=C1c2ccsc2-c2cccc3cccc1c23.O=C1c2sccc2-c2cccc3cccc1c23
3.18 µM: HCT-15
active: CCRF-CEM 0.692 µM | DU-145 0.65 µM | EKVX 0.0132 µM | Hs-578T 0.366 µM | Malme-3M 0.353 µM | RPMI-8226 0.0359 µM | SR 0.203 µM | T47D 0.318 µM
inactive: 786-0 5.89 µM | A549 3.32 µM | ACHN 2.37 µM | BT-549 1.94 µM | CAKI-1 2.26 µM | COLO 205 2.33 µM | HCT-116 2.78 µM | HL-60 11.2 µM | HOP-62 2.67 µM | HT-29 2.11 µM | IGROV-1 6.59 µM | K562 10 µM | KM12 3.52 µM | LOX IMVI 3.72 µM | M14 18.9 µM | MCF7 8.41 µM | MDA-MB-231 4.35 µM | MDA-MB-435 17.1 µM | MOLT-4 1.29 µM | NCI-H226 2.03 µM | NCI-H460 4.94 µM | NCI-H522 5.21 µM | NCI/ADR-RES 3.56 µM | OVCAR-3 10.5 µM | OVCAR-4 11 µM | OVCAR-5 1.71 µM | OVCAR-8 4.94 µM | PC-3 4.05 µM | RXF 393 2.49 µM | SF-268 7.89 µM | SF-295 8.79 µM | SF-539 6.22 µM | SK-MEL-28 21.1 µM | SK-MEL-2 14.8 µM | SK-OV-3 18.5 µM | SN12C 6.67 µM | SNB-19 2.93 µM | SNB-75 3.27 µM | SW-620 3.27 µM | TK-10 2.55 µM | U-251 4.62 µM | UACC-257 9.2 µM | UACC-62 4.15 µM | UO-31 4.67 µM
